Measured values: PMC6798376, “Production of galactitol from galactose by the oleaginous yeast Rhodosporidium toruloides IFO0880” (Biotechnology for Biofuels, 2019)

Legend:
[1] = molecular target: T1, AldR (aldose reductase; also printed AdhR) (Rhodotorula toruloides, UniProt A0A2S9ZVX5); assay: spectrophotometric NADPH assay at […] nm; assay type: biochemical; settings: 10 mM galactose as co-substrate; 20 mM Tris-HCl pH 7.0; 25 °C
[2] = molecular target: T1, AldR (aldose reductase; also printed AdhR); assay: spectrophotometric NADPH assay at […] nm; product galactitol by HPLC; assay type: biochemical; settings: NADPH as coenzyme; 10 mM galactose; 20 mM Tris-HCl pH 7.0; 25 °C

T1 sequence (A0A2S9ZVX5 entry or part of it): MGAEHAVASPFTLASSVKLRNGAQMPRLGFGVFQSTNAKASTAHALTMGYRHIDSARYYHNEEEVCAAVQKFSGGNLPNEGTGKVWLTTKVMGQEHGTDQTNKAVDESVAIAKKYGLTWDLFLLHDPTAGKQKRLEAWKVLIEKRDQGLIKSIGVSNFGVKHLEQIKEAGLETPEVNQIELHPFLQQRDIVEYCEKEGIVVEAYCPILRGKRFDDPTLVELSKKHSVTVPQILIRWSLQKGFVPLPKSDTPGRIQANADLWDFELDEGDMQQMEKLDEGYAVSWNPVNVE

Structure (SMILES): NC(=O)C1=CN([C@@H]2O[C@H](COP(=O)(O)OP(=O)(O)OC[C@H]3O[C@@H](n4cnc5c(N)ncnc54)[C@H](OP(=O)(O)O)[C@@H]3O)[C@@H](O)[C@H]2O)C=CC1 [NADPH]
- spectrophotometric NADPH assay at 340 nm [1]: AldR is an NADPH-dependent enzyme, like other galactose reductases

Structure (SMILES): OC[C@H]1OC(O)[C@H](O)[C@@H](O)[C@H]1O (some centres unmarked) [galactose]
- spectrophotometric NADPH assay at 340 nm; product galactitol by HPLC [2]: The recombinant enzyme exhibited activity against galactose with NADPH as the coenzyme
